Experimental data published in US10745428B2, “Antiviral phosphodiamide prodrugs of tenofovir” (Merck Sharp & Dohme Corp., priority 2015, dated 2020).
Read-outs that look alike come from different tables or passages of the source.

Key:
HIV-1 (H9/IIIB strain) = assay: Multiple round HIV-1 infection assay (Viking assay), HIV-1 replication in MT4-GFP cells; format: cell-based; conditions: MT4-GFP cells infected with HIV-1 H9/IIIB
Description: The antiviral activity of the tenofovir prodrugs of the Examples herein was assessed in an assay that measures the rate of replication of HIV in cell culture, termed the Viking assay (VIral KINetics in Green cells) and performed as follows. HIV-1 replication was monitored using MT4-gag-GFP clone D3 (hereafter designated MT4-GFP; GFP is green fluorescent protein), which are MT-4 cells modified to harbor a GFP reporter gene, the expression of which is dependent on the HIV-1 expressed proteins tat and rev; see Wang Y-J et al., 2010J Virological Methods 165:230-237. Productive infection of an MT4-GFP cell with HIV-1 results in GFP expression approximately 24 h post-infection. MT4-GFP cells were maintained at 37° C./5% CO2/90% relative humidity in RPMI 1640 supplemented with 10% fetal bovine serum, 100 U/ml penicillin/streptomycin, and 400 μg/ml G418 to maintain the reporter gene. For infections, MT4-GFP cells were placed in the same medium lacking G418 and infected overnight with HIV-1 (H9/IIIB strain) virus at an approximate multiplicity of infection of 0.01 in the same incubation conditions. Cells were then washed and re-suspended in either RPMI 1640 supplemented with 10% or 50% normal human serum (NHS) at 1.6×10^5 cells/mL (10% NHS or 50% NHS, respectively). Compound plates were prepared by dispensing compounds dissolved in DMSO into wells of 384 well poly-D-lysine-coated plates (0.2 μl/well) using an ECHO acoustic dispenser. Each compound was tested in a 10-point serial 3-fold dilution (typical final concentrations: 8.4 μM-0.42 nM). Controls included no inhibitor (DMSO only) and a combination of three antiviral agents (efavirenz, indinavir, and an integrase strand transfer inhibitor at final concentrations of 4 μM each). Cells were added (50 μL/well) to compound plates and the infected cells were maintained at 37′C/5% CO2/90% relative humidity.
Infected cells were quantified at two time points, ˜48 h and ˜72 h post-infection, by counting the number of green cells in each well using an Acumen eX3 scanner. The increase in the number of green cells over ˜24 h period gives the reproductive ratio, R0, which is typically 5-15 and has been shown experimentally to be in logarithmic phase (data not shown). R0 is calculated for each well, and IC50s determined by non-linear 4-parameter curve fitting.

[1] = Prodrug stability assay in bio-relevant media (FaSSIF with Pancreatin), GI Tract stability; format: in vitro ADME; conditions: HPLC peak area of prodrug at 5 h divided by area at 0 h; 0.5 mg/mL Pancreatin in FaSSIF, 37° C.
Description: The following assay was employed to evaluate the stability of the prodrugs in simulated gastrointestinal tract conditions. Preparation of fasted state simulated intestinal fluid (FaSSIF) using Phares SIF Powder was carried out according to protocols from Phare Drug Delivery AG (Baselland, Switzerland). For sample preparation, 10 μL stock solutions (10 mM) of prodrug substance in DMSO was added to 990 μL of 0.5 mg/mL Pancreatin solution (Fisher CAS#8049-47-6) in FaSSIF. Two samples were prepared for each compound. If the sample was a clear solution, it was directly analyzed by HPLC. If the sample was not clear, the sample was diluted with 100% ACN, maintained at 37° C. and observed 5 h later. If the sample was clear, HPLC analysis was directly performed. If the sample was still not clear, the sample was diluted with 100% ACN and assayed by HPLC. All the samples were vortexed for 3 min and observed before injection. For the diluted samples, the area is multiplied by a factor when the data is analyzed. The analysis was carried out with an Agilent 1100 series HPLC with autosampler. The column was usually a Poroshell 120 EC-C18, 4.6×50 mm, 2.7 μm. The flow rate was 1.8 mL/min, and the injection volume was 5 or 10 μL. UV detection was in the range 210-400 nm. The mobile phase consisted of solvent A (water plus 10 mM tetrabutylammonium bromide) and solvent B (acetonitrile) with a gradient of 90% solvent A at 0 min, changing to 95% solvent B over 6 min, maintaining for 1.5 min, then reverting to 90% solvent A over 1.6 min. The HPLC peak area of the prodrug at 5 h was divided by the HPLC peak area of the prodrug at 0 h, to generate the % claimed parent ratio, which is summarized in Table 2. for GI Tract stability.

[2] = 10% normal human serum, read-out: Viking, IC50 (10% NHS)
[3] = 50% normal human serum, read-out: Viking, IC50 (50% NHS)

Row | Compound | IC50 (HIV-1 (H9/IIIB strain); [2]) [nM] | IC50 (HIV-1 (H9/IIIB strain); [3]) [nM] | GI Tract stability [1] [%] | IC50 (HIV-1 (H9/IIIB strain); Human immunodeficiency virus 1, IIIB, 10% normal human serum, read-out: Viking, IC50 (10% NHS)) [nM] | IC50 (HIV-1 (H9/IIIB strain); Human immunodeficiency virus 1, IIIB, 50% normal human serum, read-out: Viking, IC50 (50% NHS)) [nM]
1 | CC(C)COC(=O)C(C)(C)NP(=O)(CO[C@H](C)Cn1cnc2c(N)ncnc21)N[C@H](C)C(=O)OC1CCC1 (single isomer, unassigned) [Example 20A] | 5.9 | 17.4 | 98.1 |  | 
2 | CCCCCCOC(=O)C(C)(C)NP(=O)(CO[C@H](C)Cn1cnc2c(N)ncnc21)N[C@H](C)C(=O)OC1CCCCC1 (single isomer, unassigned) [Example 15B] | 0.7 | 2.1 | 51.2 |  | 
3 | C[C@H](Cn1cnc2c(N)ncnc21)OCP(=O)(N[C@H](C)C(=O)OC1CCCC1)NC(C)(C)C(=O)OC1CCC1 (single isomer, unassigned) [Example 28B] | 2.7 | 3.3 | 90.2 |  | 
4 | CCCCCOC(=O)C(C)(C)NP(=O)(CO[C@H](C)Cn1cnc2c(N)ncnc21)N[C@H](C)C(=O)OCCCC (single isomer, unassigned) [Example 9A] | 6.1 | 19.8 | 100 |  | 
5 | CCCCCCOC(=O)[C@@H](C)NP(=O)(CO[C@H](C)Cn1cnc2c(N)ncnc21)NC(C)(C)C(=O)OCCCCCC (single isomer, unassigned) [Example 13B] |  |  | 83.8 |  | 
6 | CCCCCCOC(=O)[C@@H](C)NP(=O)(CO[C@H](C)Cn1cnc2c(N)ncnc21)NC(C)(C)C(=O)OCCCCCC (single isomer, unassigned) [Example 13A] |  |  | 99.1 | 7.2 | 40.4
7 | CCCCCOC(=O)C(C)(C)NP(=O)(CO[C@H](C)Cn1cnc2c(N)ncnc21)N[C@H](C)C(=O)OC1CCCC1 (single isomer, unassigned) [Example 24B] | 0.9 | 3.9 | 82.7 |  | 
8 | CCCCCOC(=O)C(C)(C)NP(=O)(CO[C@H](C)Cn1cnc2c(N)ncnc21)N[C@H](C)C(=O)OC1CCCC1 (single isomer, unassigned) [Example 24A] | 3.2 | 30.6 | 97.8 |  | 
9 | CCCCCOC(=O)C(C)(C)NP(=O)(CO[C@H](C)Cn1cnc2c(N)ncnc21)N[C@H](C)C(=O)OC(C)C (single isomer, unassigned) [Example 17A] | 15.9 | 78 | 100 |  | 
10 | CCCCCOC(=O)C(C)(C)NP(=O)(CO[C@H](C)Cn1cnc2c(N)ncnc21)N[C@H](C)C(=O)OCCCC (single isomer, unassigned) [Example 9B] | 1 | 4.2 | 73.9 |  | 
11 | CCCCOC(=O)[C@@H](C)NP(=O)(CO[C@H](C)Cn1cnc2c(N)ncnc21)NC(C)(C)C(=O)OC(C)C (single isomer, unassigned) [Example 3B] | 3.8 | 20.5 | 95.6 |  | 
12 | CCCOC(=O)C(C)(C)NP(=O)(CO[C@H](C)Cn1cnc2c(N)ncnc21)N[C@H](C)C(=O)OC1CCC1 (single isomer, unassigned) [Example 22A] | 11.6 | 50.9 | 98.2 |  | 
13 | CCCCCOC(=O)[C@@H](C)NP(=O)(CO[C@H](C)Cn1cnc2c(N)ncnc21)NC(C)(C)C(=O)OCCCCC (single isomer, unassigned) [Example 16B] | 0.9 | 4.2 | 97.8 |  | 
14 | CCCCCCOC(=O)C(C)(C)NP(=O)(CO[C@H](C)Cn1cnc2c(N)ncnc21)N[C@H](C)C(=O)OC(C)C (single isomer, unassigned) [Example 2B] | 1.3 | 5.2 | 94.2 |  | 
15 | CCCCCCOC(=O)C(C)(C)NP(=O)(CO[C@H](C)Cn1cnc2c(N)ncnc21)N[C@H](C)C(=O)OC1CCCC1 (single isomer, unassigned) [Example 14B] | 0.6 | 2 | 47.2 |  | 
16 | CCCCOC(=O)C(C)(C)NP(=O)(CO[C@H](C)Cn1cnc2c(N)ncnc21)N[C@H](C)C(=O)OC1CCC1 (single isomer, unassigned) [Example 23B] | 6 | 13.6 | 58.6 |  | 
17 | CCCCCOC(=O)[C@H]1CCCN1P(=O)(CO[C@H](C)Cn1cnc2c(N)ncnc21)NC(C)(C)C(=O)OCCCCC (single isomer, unassigned) [Example 26B] | 4.4 | 19.5 | 92.5 |  | 
18 | CC(C)COC(=O)C(C)(C)NP(=O)(CO[C@H](C)Cn1cnc2c(N)ncnc21)N[C@H](C)C(=O)OC1CCC1 (single isomer, unassigned) [Example 20B] | 1.7 | 5.9 | 71.0 |  | 
19 | C[C@H](Cn1cnc2c(N)ncnc21)OCP(=O)(N[C@H](C)C(=O)OC1CCCC1)NC(C)(C)C(=O)OC1CCCCC1 (single isomer, unassigned) [Example 27B] | 1.6 | 4.7 | 93.5 |  | 
20 | CCCCCOC(=O)C(C)(C)NP(=O)(CO[C@H](C)Cn1cnc2c(N)ncnc21)N[C@H](C)C(=O)OC1CCC1 (single isomer, unassigned) [Example 19B] | 2.5 | 10.8 | 49.3 |  | 
21 | CC(C)OC(=O)C(C)(C)NP(=O)(CO[C@H](C)Cn1cnc2c(N)ncnc21)N[C@H](C)C(=O)OC1CCC1 (single isomer, unassigned) [Example 18B] | 11 | 25.8 | 97.4 |  | 
22 | CCCCCOC(=O)C(C)(C)NP(=O)(CO[C@H](C)Cn1cnc2c(N)ncnc21)N[C@H](C)C(=O)OC(C)C (single isomer, unassigned) [Example 17B] | 1.3 | 5.2 | 94.2 |  | 
23 | CC(C)OC(=O)C(C)(C)NP(=O)(CO[C@H](C)Cn1cnc2c(N)ncnc21)N[C@H](C)C(=O)OC1CCCC1 (single isomer, unassigned) [Example 1B] | 2.4 | 6.2 | 95.9 |  | 
